Data set [1] concerns hemorrhagic transformation model induced by clopidogrel combined with cerebral ischemia-reperfusion. As to the kind of experiment: Hemorrhagic transformation after cerebral ischemia-reperfusion (MCAO) caused by clopidogrel, bleeding rate. The data set is classed as in vivo, ICR mice. Conditions: 12 mg/kg i.g. Day 1-3 with clopidogrel 15 mg/kg; 24 h after MCAO; of 8 (icaritin) or 7 (icariin) animals. As to the method:
(§1) 5-week-old ICR male mice were fed to 6-week-old and divided into a control group, a model group, an icaritin-3 mg/kg group, an icaritin-6 mg/kg group, an icaritin-12 mg/kg group, and an icariin-12 mg/kg group according to body weight. From day 1 to day 3 after the grouping, the mice in each icaritin group were separately intragastrically administrated with 3, 6, and 12 mg/kg of icaritin and the mice in the icariin group was intragastrically administrated with 12 mg/kg of icariin once a day, and the mice in other groups were intragastrically administrated with a corresponding vehicle; and except the control group, the mice in other groups were intragastrically administrated with aspirin (100 mg/kg) or clopidogrel (15 mg/kg) once a day at a volume of 10 mL/kg.
(§2) On day 3, 10 min after the administration, the mice were anesthetized by intraperitoneal injection of 70 mg/kg of pentobarbital sodium and subjected to a cerebral ischemia-reperfusion (middle cerebral artery occlusion, MCAO) surgery with ischemia for 1 h and reperfusion for 23 h.
(§3) 24 h after the surgery was an end point of the experiment.
(§4) Bleeding rate: the mice were anesthetized by intraperitoneal injection of 70 mg/kg of pentobarbital sodium, a brain tissue was taken out, cerebral hemorrhage was recorded and a bleeding rate of the mice in each group was calculated. Cerebral hemorrhage rate %=number of animals with cerebral hemorrhage/number of surviving animals in each group×100.

For data set [2], the system named is hemorrhagic transformation model induced by aspirin combined with cerebral ischemia-reperfusion. The data set is described as follows: Hemorrhagic transformation after cerebral ischemia-reperfusion (MCAO) caused by aspirin, bleeding rate. Format: in vivo, ICR mice. Conditions: 12 mg/kg i.g. Day 1-3 with aspirin 100 mg/kg; 24 h after MCAO; of 9 (icaritin) or 8 (icariin) animals. Here is the method:
as §1, §2, §3, §4

The conditions of data set [3]: mouse, in vivo, ip, 200 mg/kg.
Protocol: (§7) After the grouping, the mice in the normal group and the model group were intragastrically administrated with 10 ml/kg of an icaritin solvent which was prepared by adding 12 g of hypromellose E5 and 0.1 g of sodium lauryl sulfate into 1 L of water. […] One hour after the last pre-administration, the mice in the model group and each administration group were injected with 150 U/kg of a heparin sodium injection through a tail vein to establish a model, and the mice in the normal group were injected with 10 ml/kg of a sodium chloride injection through a tail vein.
(§8) After the bleeding time was detected, the mice were anesthetized with sodium pentobarbital, blood was collected from an abdominal cardinal vein, and indicators of blood routine examination and four coagulation indicators (prothrombin time, thromboplastin time, thrombin time, and fibrinogen) were detected.
The conditions of data set [4]: mouse, in vivo, ip, 200 mg/kg. This is another data set of the same source.
Protocol: as §7, §8
Data set [5] concerns prolonged bleeding time caused by heparin sodium. As to the kind of experiment: Tail-cut bleeding time in mice, prolonged by heparin sodium. The data set is classed as in vivo, ICR mice. Conditions: group P, 200 mg/kg i.p. once a day 5 days; heparin sodium 150 U/kg i.v. An excerpt: 72 ICR mice aged 5-6 weeks, weighing 19-21 g, and half male and half female were selected. The mice were quarantined for 7 days after entering a laboratory and healthy mice were selected as test animals. The mice were weighed on first and last days of quarantine. According to the body weight on the last day of the quarantine, the male and female animals were divided into six groups by a simplified random method, namely, a normal group (C), a model group (V), low-, medium- and high-dose icaritin groups (2, 6, and 18 mg/kg, L, M, H) and a positive control drug group (200 mg/kg of etamsylate, P).
(§5) After 15 min of the modeling, the tails of the mice were cut and bleeding time of each mouse was measured.

For data set [6], the system named is prolonged bleeding time caused by aspirin. As to the kind of experiment: Tail-cut bleeding time in mice, prolonged by aspirin. The data set is classed as in vivo, ICR mice. Conditions: group P, 200 mg/kg i.p. once a day 5 days; aspirin 20 mg/kg i.g. Here is the method: According to the body weight on the last day of the quarantine, the male and female animals were divided into six groups by a simplified random method, namely, a normal group (C), a model group (V), icaritin low-, medium- and high-dose groups (2, 6, and 18 mg/kg, L, M, H) and a positive control drug group (200 mg/kg of etamsylate, P).
as §5

Data set [7] deals with gastric bleeding caused by thrombolytic drug. Set-up: species or system SD rats. Conditions: rat, in vivo. As to the method: (§6) An animal model of thromboembolic cerebral ischemia was prepared by blocking a middle cerebral artery with an autologous thrombus combined with a suture occlusion method, and a catheter was indwelled.
24 h after the arterial administration, the rats in each group were anesthetized and dissected. The number of bleeding cases was observed under naked eyes and a light microscope, and a ratio of the number of bleeding cases to the total number was calculated.

Another data set deals with gastric injury. Also on record: species or system SD rats. Conditions: rat, in vivo. Here is the method: as §6
The left lung and gastric antrum were excised, fixed with 100 g/L of a neutral formaldehyde solution, and dehydrated conventionally to be transparent, the dehydrated tissue was dipped with wax and embedded, the embedded tissue was sectioned and stained, and pathological changes were observed under a light microscope. A damage degree was graded according to a degree of tissue congestion, edema and cell degeneration from mild to severe: grade I: 0%-25%, grade II: 26%-50%, grade III: 51%-75%, and grade IV: >75% (bleeding was observed under the microscope).

On to `COc1ccc(-c2oc3c(CC=C(C)C)c(O[C@@H]4O[C@H](CO)[C@@H](O)[C@H](O)[C@H]4O)cc(O)c3c(=O)c2O[C@@H]2O[C@@H](C)[C@H](O)[C@@H](O)[C@H]2O)cc1` [Icariin, reference compound], for which the “Number of animals with cerebral hemorrhage” value was 5 in data set [1] and 6 in data set [2].

Consider `O=S(=O)(O)c1cc(O)ccc1O` [Etamsylate, reference compound], for which, in data set [3], the Number of erythrocytes is listed as 6.998 ± 0.871 10^12/L, the Number of leukocytes was 1.903 ± 0.221 10^9/L and the Number of platelets is recorded as 1097 ± 114 10^9/L. In data set [4], this compound registered a Fibrinogen of 1.86 ± 0.40 g/L, a Prothrombin time of 10.03 ± 1.24 s, a Thrombin time of 24.34 ± 1.37 s and a Thromboplastin time of 22.78 ± 2.34 s. In addition, the Bleeding time in data set [5] is recorded as 21.4 ± 6.7^$ min. Moreover, in data set [6], the Bleeding time is recorded as 26.4 ± 6.4^$ min.

Turning to Urokinase, in data set [7], the Bleeding rate was 68.8^$ $ % and the “Number of bleeding animals” value worked out at 11. In the data set on gastric injury, the “Incidence of gastric injury” value was 100 ^$ $ %; the “Number of animals, gastric damage grade I” value was 1; the “Number of animals, gastric damage grade II” value is on record as 2; the “Number of animals, gastric damage grade III” value worked out at 2. For the same compound, in the data set on gastric injury, the “Number of animals, gastric damage grade IV” value is 11 and the “Total number of animals with gastric injury” value was 16.

The values above are taken from patent publication US12558343B2, “Medical use of icaritin” (Lunan Pharmaceutical Group Corporation, priority 2020, dated 2026).
